Laboratory results from patent publication US12465615B2, “Aqueous solutions containing purines and pyrimidines and uses thereof” (UCB BIOSCIENCES, INC., priority 2021, dated 2025).

What was measured:
Assay type in all cases: physicochemical
[1] = pH of thymidine suspensions after stirring
Method: (§1) The procedure involved adding 300 mg of the thymidine to 3.0 mL of liquid and stirring. The three liquids were water, water wherein 50 mg/mL of deoxycytidine had already been dissolved, and water buffered at about pH 3. The pH 3 buffered water was created by adding 821 mg of anhydrous citric acid and 213 mg of sodium citrate dehydrate to a 100 mL volumetric flask and adding water to the 100 mL mark while dissolving the solids. The deoxycytidine solution was created by adding 500 mg of deoxycytidine to a 10 mL volumetric flask and filling the flask with water while dissolving the solids, yielding a pH of 8.23 and a deoxycytidine concentration of about 50 mg/mL.
(§2) The liquids were stirred and samples were withdrawn at 5 mins, 10 mins, and 24 hours. At each time period 0.7 mL of the suspension was removed and subjected to filtration through a 0.45 μm PTFE filter, and 0.3 mL of the suspension was removed and centrifuged at 10,000 rpm for 2 minutes. The filtrate from the filtration and the supernatant from the centrifugation were subjected to high performance liquid chromatography (HPLC) to determine the amount of dissolved thymidine.
The pH of the suspensions were also recorded.

[2] = Reconstitution of thymidine in water with differing amounts of deoxycytidine (HPLC content after 2 minutes of mixing); conditions: 6000 mg dT in 120 mL water
Method: The solubility of thymidine in combination with different amounts of deoxycytidine was determined using HPLC and reconstitution methods as described below.
Each 50 mg/mL stock solution was prepared by adding 120 mL of purified water to a 400 mL beaker, stirring the water at 650 rpm, and then adding the amounts of thymidine and/or deoxycytidine as listed in the Table 3 below for each sample to form mixtures.
Each mixture was stirred at 650 rpm for about 1 minute, after which the stirring was reduced to 150 rpm and maintained at 150 rpm for about 1 minute. After about 2 minutes total, the mixture was filtered through a 0.45 μm syringe filter to obtain filtered stock solutions for each sample.
0.9 mg/mL intermediate solutions of each of the above samples were prepared by adding 1.0 mL of the respective filtered stock solution into a 50 mL volumetric flask and diluting to volume with a diluent (e.g., water) and mixing.
0.09 mg/mL working solutions of each of the above samples were prepared by adding 1.0 mL of the respective intermediate solution into a 10 mL volumetric flask and diluting to volume with a diluent (e.g., water) and mixing. The resulting mixture was transferred to an HPLC vial.
Working solutions for each of the above samples were subjected to HPLC analysis utilizing the conditions and parameters below and in Table 4. The data collected from the HPLC analysis was then used to calculate percent content of thymidine dissolved for each sample after 2 minutes of mixing. • Mobile Phase A: Purified Water (degassed by sonication) • […] (degassed by sonication)
[formula] • ASample=Peak area of dC or dT in the sample solution • WStd=Weight of dC or dT reference material [mg] • PurityStd=Purity of dC or dT reference material in %/100 • VSample=Dilution of sample solution corrected with dC or dT [mL] • LCFW=Correction factor of Label Claim and fill weight/0.4825 (2000 mg/4145 mg) • AStd=Mean peak area of dC or dT in the 6 injections of Std1 at beginning • WSample=Weight of sample (mg) • VStd=Dilution of standard solution [mL]/50 mL • 100=Conversion in % Results
The dC Level is the percentage of the mass of dC relative to dT. The dT Content is the percentage of dT in solution within 2 minutes of stirring in the presence of the indicated dC level.

[3] = Solubility of thymidine in aqueous liquids (300 mg in 3.0 mL, stirring, HPLC)
From the text: The solubility of thymidine was investigated wherein the dissolving liquid was water, pH 3 buffered water, and deoxycytidine containing water. The deoxycytidine employed in the solubility studies is referred to as Form A deoxycytidine, e.g. as described in U.S. Patent Publication 2021/0054014, which is incorporated herein by reference. Form A deoxycytidine is characterized by an X-ray diffraction pattern comprising peaks at 8.4, 12.9, 14.2, 16.8, 18.4, 19.4, 28.4, 30.0, and 30.6 degrees two-theta (2θ) (+/−0.2). The X-ray diffraction pattern can be recorded using CuKα1 radiation.
as §1, §2
Solubilities are reported in mg/mL.

[4] = Water with 50 mg/mL of deoxycytidine, stirring 24 hrs
[5] = pH 3 buffered water, stirring 10 mins
[6] = pH 3 buffered water, stirring 24 hrs

pH of suspensions ([1]; Water with 50 mg/mL of deoxycytidine, stirring 5 mins): 7.3
pH of suspensions ([1]; Water with 50 mg/mL of deoxycytidine, stirring 10 mins): 7.1
pH of suspensions [1, 4]: 7.3
pH of suspensions ([1]; Water, stirring 5 mins): 7.3
pH of suspensions ([1]; Water, stirring 10 mins): 7.3
pH of suspensions ([1]; Water, stirring 24 hrs): 7.3
pH of suspensions ([1]; pH 3 buffered water, stirring 5 mins): 3.2
pH of suspensions [1, 5]: 3.1
pH of suspensions [1, 6]: 3.1
dT Content (percentage of dT in solution within 2 minutes of stirring) ([2]; dC Level 0 % (mass of dC relative to dT)): 89.09%
dT Content (percentage of dT in solution within 2 minutes of stirring) ([2]; dC Level 10 %): 93.39%
dT Content (percentage of dT in solution within 2 minutes of stirring) ([2]; dC Level 20 %): 92.69%
dT Content (percentage of dT in solution within 2 minutes of stirring) ([2]; dC Level 40 %): 95.68%
dT Content (percentage of dT in solution within 2 minutes of stirring) ([2]; dC Level 80 %): 96.78%
dT Content (percentage of dT in solution within 2 minutes of stirring) ([2]; dC Level 100 %): 95.91%
thymidine solubility higher than the thymidine solubility in water ([3]; 50 mg/mL deoxycytidine solution versus water, 5 minutes): about 38%
Dissolved thymidine [3, 4]: 65.62 mg/mL
Dissolved thymidine ([3]; Water, stirring 24 hrs): 51.04 mg/mL
thymidine solubility higher than in water ([3]; deoxycytidine liquid versus water, 10 minutes): about 58%
Dissolved thymidine [3, 5]: 59.66 mg/mL
Dissolved thymidine [3, 6]: 52.04 mg/mL
SMILES: Cc1cn([C@H]2C[C@H](O)[C@@H](CO)O2)c(=O)[nH]c1=O [thymidine]
